{
  "source": "paper PMC5408612",
  "about": "“Biophysical studies of cholesterol effects on chromatin” (Journal of Lipid Research, 2017)",
  "target": "T1, long chromatin fibers (chicken histone octamer on 177 bp x 36 array of 601 DNA) (Gallus gallus, UniProt P02263+P0C1H3+P62801+P84229)",
  "T1 construct": "gene H3-I",
  "details": "labelled compound; 0.5 and 1 uM; on ice; with or without 4.5 mM MgCl2; histone-DNA complex, site on histone versus DNA not resolved",
  "data": [
    {"smiles": "CC1=CC(C)=[N+]2C1=C(CC[C@@H](C)[C@H]1CC[C@H]3[C@@H]4CC=C5C[C@@H](O)CC[C@]5(C)[C@H]4CC[C@]13C)c1c(C)cc(C)n1[B-]2(F)F", "note": "[TopFluor cholesterol, 23-(dipyrrometheneborondifluoride)-24-norcholesterol]", "values": [
      {"measurement": "fluorescence co-migration in native agarose gel (EMSA), pelleting assay", "result": "cholesterol bound avidly to open or compacted chromatin fibers"}
    ]}
  ]
}
